| Compound | melting point [°C] |
| --- | --- |
| COc1cc2c(cc1OC)-c1c(-c3nc(-c4ccccc4)no3)c(-c3cc(C)c(O)c(C)c3)c(C)n1C(C)C2 (racemic) [Example 3, (5RS)-4-[8,9-Dimethoxy-3,5-dimethyl-1-(3-phenyl-[1,2,4]oxadiazol-5-yl)-5,6-dihydro-pyrrolo[2,1-a]isoquinolin-2-yl]-2,6-dimethyl-phenol] | 203 to 206 |
| COc1cc2c(cc1OC)-c1c(-c3nc(C)no3)c(-c3cc(C)c(O)c(C)c3)c(C)n1CC2 [Example 5, 4-[8,9-Dimethoxy-3-methyl-1-(3-methyl-[1,2,4]oxadiazol-5-yl)-5,6-dihydro-pyrrolo[2,1-a]isoquinolin-2-yl]-2,6-dimethyl-phenol] | 218 to 221 |
| COc1cc2c(cc1OC)-c1c(-c3nc(C)no3)c(-c3cc(C)c(O)c(C)c3)c(C)n1C(C)C2 (racemic) [Example 1, (5RS)-4-[8,9-Dimethoxy-3,5-dimethyl-1-(3-methyl-[1,2,4]oxadiazol-5-yl)-5,6-dihydro-pyrrolo[2,1-a]isoquinolin-2-yl]-2,6-dimethyl-phenol] | 182 to 184 |

Now from value to compound:

| melting point [°C] | Compound |
| --- | --- |
| 191 to 193 | COc1cc2c(cc1OC)-c1c(-c3nc(-c4ccccc4)no3)c(-c3cc(C)c(O)c(C)c3)c(C)n1CC2 [Example 4, 4-[8,9-Dimethoxy-3-methyl-1-(3-phenyl-[1,2,4]oxadiazol-5-yl)-5,6-dihydro-pyrrolo[2,1-a]isoquinolin-2-yl]-2,6-dimethyl-phenol] |
| 222 to 224 | COc1cc2c(cc1OC)-c1c(-c3ncc(C)o3)c(-c3cc(C)c(O)c(C)c3)c(C)n1CC2 [Example 6, 4-[8,9-Dimethoxy-3-methyl-1-(5-methyl-oxazol-2-yl)-5,6-dihydro-pyrrolo[2,1-a]isoquinolin-2-yl]-2,6-dimethyl-phenol] |
| 174 to 175 | COc1cc2c(cc1OC)-c1c(-c3nc(C4CC4)no3)c(-c3cc(C)c(O)c(C)c3)c(C)n1C(C)C2 (stereo not drawn) [Example 2, (5RS)-4-[1-(3-Cyclopropyl-[1,2,4]oxadiazol-5-yl)-8,9-dmethoxy-3,5-dimethyl-5,6-dihydro-pyrrolo[2,1-a]isoquinolin-2-yl]-2,6-dimethyl-phenol] |
